This is an account of results in patent US20080199423A1, “Methods of Using Apo2l Receptor Agonists and Ink Cell Activators” (GENENTECH, INC., priority 2004, published 2008).

In assay [1] the test system is cell surface Apo2L/TRAIL on NK cells. Description: Flow cytometry of cell surface Apo2L/TRAIL on purified NK cells. Format: cell-based, human. The conditions noted are these: 5C2-Alexa 488 staining. Here is the method: Cell surface Apo2L/TRAIL on purified NK cells treated with poly(I:C), R-848 or hIL-2 (30 ng/ml, BD Biosciences) was also analyzed by cytometry. Isotype control (IgG2a, Sigma) and anti-Apo2L/TRAIL antibody (5C2) were labeled with Alexa 488 (Molecular Probes). 5×10^5 cells were incubated with 2 μg of human IgG to block FcRs and 1 μg of the directly labeled mAbs at 4° C. for 45 minutes, followed by 2 washes. Stained cells were analyzed using a FACScan cytometer (Becton Dickenson) and Cellquest software.
Background: Flow cytometry measures light scatter and fluorescence of single cells or particles in a stream.

In another assay the test system is 4T1 cells. Description: 51Cr release cytotoxicity assay, purified human NK cells on 4T1 target cells. The format is cell-based, mouse. The conditions noted are these: NK cells treated for 18 hours with agent; 4 hour incubation; E:T 1:1 to 50:1. Here is the method: 4T1 cells (a metastatic mammary carcinoma cell line derived from BALE/C mice, obtained from Fred Miller, Karmanos Cancer Institute) were assayed in an in vitro cytotoxicity assay to examine tumoricical effects of various Toll receptor (“TLR”) activators and NK cells. The 4T1 target cells were cultured in IDMEM medium supplemented with 10% FCS, glutamine and penicillin/streptomycin, labeled with 100 mCi ^51Cr for 1 hour at 37° C. and then washed three times with culture medium.
To prepare purified effector NK cells for the assay, PBMCs from healthy human donors were isolated by standard density-gradient centrifugation over Ficoll-Paque Plus (Pharmacia). CD3 positive cells were first depleted using anti-CD3 microbeads (obtained from Miltenyi), and then the NK cells were purified using anti-CD56 microbeads (Miltenyi). The purity of the NK cell preparation was 95% or higher as determined by staining with mouse anti-human CD56 PE and mouse anti-human CD14 PE conjugates (BD Biosciences). The isolated cells were cultured in RPMI 1640 supplemented with heat inactivated 10% FCS, penicillin, streptomycin, 10 mM sodium pyruvate, 2 mM L-glutamine and 10 mM HEPES.
10^4 of the labeled 4T1 cells were added to varying numbers of purified NK cells (either untreated control NK cells or NK cells treated with specific agent) at ratios of 1:1, 3:1, 6:1, 12:1, 25:1, and 50:1, respectively. NK cells were treated for 18 hours with one of the following TLR activating agents: sBLP (1 μg/ml, Bachem); poly(I:C) (50 μg/ml, Pharmacia); E. coli 055:B5 LPS (phenol extracted, 1 μg/ml, Sigma); Flagellin (1 μg/ml, A. Gewirtz, Emory Univerity); R-848 (5 μg/ml, Invivogen); CpG oligonucleotides (2006 and 2216, 5 μM, Invivogen). The cytotoxicity assays were performed in round bottom 96 well plates, and the samples were incubated in duplicate wells for 4 hours at 37° C., 5% CO2. RPMI 1640 supplemented with heat inactivated 10% FCS, penicillin, streptomycin, 10 mM sodium pyruvate, 2 mM L-glutamine and 10 mM HEPES was used during incubation.
After the 4 hour incubation, supernatants were aspirated from the wells and examined for ^51Cr release using a Gamma counter. The percent specific lysis was calculated as 100× (experimental cpm-spontaneous cpm)/(total cpm-spontaneous cpm). The data are representative of at least three experiments and <5% SD was observed.
A cytotoxicity assay was performed as described in Example 1, except for the following modifications. Purified NK cells were treated with poly(I:C) or R-848 overnight and incubated with 4T1 cells. The role of TNF-alpha, FasL, and Apo2L/TRAIL was evaluated by preincubation of the NK cells with neutralizing antibodies to the respective ligands. The following neutralizing antibodies were added at final concentration of 2 μg/ml: anti-Fas-L (mIgG2b, R&D Systems), anti-TNF-alpha (mIgG1, Genentech), and anti-Apo2L/TRAIL (5C2, mIgG2a, ATCC HB-12258 and 1D1, mIgG2b; ATCC HB-12257). Isotype control antibodies were obtained from BD Biosciences.
For the cytotoxicity assays, target cells were labeled with 100 mCi ^51Cr for 1 hour at 37° C. and then washed 3 times before use. 10^4 target cells were added to varying numbers of effector cells at the indicated ratios and incubated in duplicate wells for 4 hours at 37° C., 5% CO2, and supernatants were used to determine ^51Cr released using a Gamma counter. The cytotoxicity assays were performed in round bottom 96 well plates and the percent specific lysis was calculated as 100× (experimental cpm-spontaneous cpm)/(total cpm-spontaneous cpm). The role of Apo2L/TRAIL expressed by NK cells in the lysis of target cells was evaluated using anti-Apo2L/TRAIL mAbs (5C2 and 1D1, Genentech, Inc.). Isotype control antibodies were obtained from BD Biosciences.

Assay [2] has as its system Apo2L/TRAIL protein in NK cells. Description: Quantitative ELISA of Apo2L/TRAIL protein in NK cell lysates or supernatants. The format is cell-based, human. The conditions noted are these: stimulated NK cells. The method, then:
Resting and poly(I:C) stimulated NK cell lysates or their culture supernatants were assessed for the presence of Apo2L/TRAIL protein by quantitative ELISA (kit, BD Biosciences). To confirm Apo2L/TRAIL protein expression was increased following activation of NK cells with poly(I:C) or R848, an ELISA was performed.

The test system of assay [3] is Apo2L/TRAIL mRNA in NK cells. Description: RT-QPCR of Apo2L/TRAIL message in treated NK cells. The format is cell-based, human. Conditions: NK cells treated 18 hours; normalized to RPL19. The method, then: In another experiment, the purified NK cells were treated for 18 hours in RPMI 1640 supplemented with heat inactivated 10% FCS, penicillin, streptomycin, 10 mM sodium pyruvate, 2 mM L-glutamine and 10 mM HEPES with poly(I:C) (50 μg/ml), R-848 (5 μg/ml) or hIFN-alpha (1000 U/ml, Sigma) in the presence or absence of 10 μg/ml cycloheximide and Apo2L/TRAIL was measured in the extracted RNA. RT-PCR was performed and the amount of cDNA was quantitated by RT-QPCR analysis, normalized to RPL19, and fold induction over control is shown in FIG. 2A. Primers were designed as per instructions (Primer Express) and sequences are: hRPL19-probe: […] (SEQ ID NO:7); hRPL19-For: […] (SEQ ID NO:8); hRPL19-Rev: […] (SEQ ID NO:9); hApo2L-probe: […] (SEQ ID NO:10); hApo2L-For: […] (SEQ ID NO:11); hApo2L-Rev: […] (SEQ ID NO:12). cDNA was analyzed for expression of RPL19 and Apo2L/TRAIL by RT-QPCR (Applied Biosystems) as described in Zarember et al., J. Immunol., 168(2):554-61 (2002). Fold increase values are expressed as arbitrary units, relative to the calibrator gene RPL19.

Take poly(I:C): the “Cell surface expression of Apo2L/TRAIL on NK cells” value in assay [1] is recorded as “detectable cell surface expression”. In addition, the “Lysis of 4T1 cells by NK cells treated with TLR activating agent” value in the assay on 4T1 cells was “efficiently lysed”. Besides, in assay [2], the “Apo2L/TRAIL protein in NK cell lysates” value is “present in a cell-associated form” and the “Apo2L/TRAIL released into supernatants” value is on record as “No significant levels”. The “Increase of Apo2L/TRAIL mRNA over control” value in assay [3] amounted to 26 fold.
